Results: patent US6590140B1, “Metal-regulated transporters and uses therefor” (Trustees of Dartmouth College, priority 1996, dated 2003)

Test system: wild type (DY1457) cells
Assay: Zinc-limited growth, wild type yeast
Type: cell-based, Saccharomyces cerevisiae
Conditions: LZM, 16 hours
Experimental: Strains used were DY1457 (MATα ade6 can1 his3 leu2 trp1 ura3) and ZHY1 (MaTα ade6 can1 his3 leu2 trp1 ura3 zrt1:: LEU2). Yeast were grown in standard culture media (SD, YPD) (Eide, D., Davis-Kaplan S., Jordan, I., Sipe, D., and Kaplan, J. (199: 2) J. Biol. Chem. 267, 20774-20781) supplemented with necessary auxotrophic requirements and either 2% glucose or 2% galactose. A zinc-limiting medium (LZM) was prepared in the same manner as LIM (Eide and Guarenete (1992) J. Gen. Microbiol. 138:347-354) except that […]. Cell number in liquid cultures was determined by measuring the optical density of cell suspensions at 600 nm (A600) and converting to cell number with a standard curve.
Strains used were DY1457 (MATα ade6 can1 his3 leu2 trp1 ura3), ZHY1 (AMTα ade6 can1 his3 leu2 trp1 ura3 zrt1::LEU2), ZHY2 (MATα ade6 can1 his3 leu2 trp1 ura3 zrt2::HIS3), and ZHY3 (MATα ade6 can1 his3 leu2 trp1 ura3 zrt1::LEU2 zrt2::HIS3). […] The concentrations of free (i.e. unchelated) zinc were calculated using MAXCHELATOR software (Chris Patton, Stanford University). Cell number in liquid cultures was determined by measuring the absorbance of cell suspensions at 600 nm (OD600) and converting to cell number with a standard curve. […]

## [Zn+2] [zinc]
  calculated free zinc [Zn]F sufficient for maximum growth yield: ~6 pM
  total zinc sufficient for maximum number of cell divisions: 10 µM
